In patent US5376637A, “Pharmaceutical preparation containing vasoactive intestinal polypeptide or its analogue” (Sanwa Kagaku Kenkyusho Co., Ltd., priority 1991, dated 1994):

How the values were obtained:
PCA reaction = test: Passive cutaneous anaphylaxis test (PCA reaction); type: in vivo; conditions: male rat
Experimental: A rat was immunized with egg-albumin suspended in aluminum hydroxide gel in a conventional manner and a blood letting was carried out to obtain an antiserum rich in IgE.
A male rat was anesthetized with ethyl ether and hairs on back were sheared to intradermally inject by 0.1 ml of the antiserum solution (diluted to 5-folds in volume) described in Item (1), at both sides with a certain distance from a medial line on the back. After 72 hours, a mixed solution of egg albumin (5 mg/kg), 2% Evans blue and a test compound (L-Leu^17 ]-VIP-Hse or pure native type VIP) or disodium cromoglycate was injected into a vein, under anesthetized with pentobarbital. After 30 minutes from an occasion of PCA reaction, the experimental animal was killed and pealed-off the skin to obtain a piece of the skin dyed with the coloring matter.
The coloring matter was extracted in accordance with the method described by Katayama ["Microbio. Immunol.", Vol. 22, No. 2, pages 89 (1987)] and an amount thereof was measured at 620 nm in wave length to calculate an inhibition of the PCA reaction.

arterial pressure = test: Hypotensing action in anesthetized beagle dog; type: in vivo; conditions: injection in femoral artery, 0.02-10 μg/kg
Experimental: In a femoral artery of anesthetized beagle dog (body weight: about 10 kg), each of VIP analogues as Test Samples was injected in a dose of 0.02-10 μg/kg and measured an arterial pressure to prepare a chart showing a relation between the dose and change in blood pressure and check an amount of dose which shall cause a reduction of 15 mmHg in blood pressure.

[1] = dose 0.01 mg/kg injected into a vein
[2] = dose 0.1 mg/kg injected into a vein
[3] = dose 1.0 mg/kg injected into a vein

Compound	Inhibition (%) of PCA reaction (PCA reaction; [1])	Inhibition (%) of PCA reaction (PCA reaction; [2])	Inhibition (%) of PCA reaction (PCA reaction; [3])	amount of dose causing a reduction of 15 mmHg in blood pressure, relative value (native type VIP = 100%) (arterial pressure)
O=C([O-])c1cc(=O)c2c(OCC(O)COc3cccc4oc(C(=O)[O-])cc(=O)c34)cccc2o1.[Na+].[Na+] [Disodium cromoglycate]	5%	28%	31%	
CC[C@H](C)[C@H](NC(=O)[C@H](CO)NC(=O)[C@H](CC(N)=O)NC(=O)[C@H](CC(C)C)NC(=O)[C@H](Cc1ccc(O)cc1)NC(=O)[C@H](CCCCN)NC(=O)[C@H](CCCCN)NC(=O)[C@@H](NC(=O)[C@H](C)NC(=O)[C@H](CCSC)NC(=O)[C@H](CCC(N)=O)NC(=O)[C@H](CCCCN)NC(=O)[C@H](CCCNC(=N)N)NC(=O)[C@H](CC(C)C)NC(=O)[C@H](CCCNC(=N)N)NC(=O)[C@@H](NC(=O)[C@H](Cc1ccc(O)cc1)NC(=O)[C@H](CC(N)=O)NC(=O)[C@H](CC(=O)O)NC(=O)[C@@H](NC(=O)[C@H](Cc1ccccc1)NC(=O)[C@@H](NC(=O)[C@H](C)NC(=O)[C@H](CC(=O)O)NC(=O)[C@H](CO)NC(=O)[C@@H](N)Cc1c[nH]cn1)C(C)C)[C@@H](C)O)[C@@H](C)O)C(C)C)C(=O)N[C@@H](CC(C)C)C(=O)N[C@@H](CC(N)=O)C(N)=O [Native type VIP, vasoactive intestinal polypeptide]	23%	72%	67%	100%
